Test results published in patent US4859682A, “2-Halogenated-8- and 1,8-substituted ergolenes” (Richter Gedeon Vegyeszeti Gyar Rt., priority 1986, dated 1989).
Counter-ions that a name gives are not always drawn.

How the values were obtained:
[1] = Inhibition of the conditioned avoidance response (CAR inhibition); assay type: in vivo, Hann-Wistar rats (male); details: rats; for ED50: Rattus norvegicus, po, 1 h, p.o., 60 min before test
Procedure: (§1) The investigations were carried out on Hann-Wistar (LATI=a Hungarian firm with the name "Institute for Breeding Laboratory Animals") rats and CFLP (LATI) mice. The compounds to be tested were orally administered in a volume of 5 ml/kg of body-weight (abbreviated: ml/kg) to rats and in a volume of 10 ml/kg to mice 60 minutes before starting the experiment.
(§2) The substances were suspended in a solution of Tween 80 of 0.5% strength and then diluted to the desired concentration with physiological saline solution.
(§3) The results are expressed as percentages or, alternatively the ED50 values together with the 95% fiducial limits are given as calculated by means of the probit analysis [J. T. Litschfield and F. Wilcoxon: J. Pharmacol. 96, 99 (1949)].
1. Inhibition of the conditioned avoidance response (CAR inhibition)
The method of D. Bovet et al. (in: Neuropsychopharmacology Vol. 2., p. 142 ed. Elsevier Publishing House, Amsterdam, 1961) was used for this test.
Male rats weighing 140 to 160 g were conditioned for 10 days in an automated six-channel shuttle box (VKI). Each one session consisted of 30 cycles; the time of the partial cycles was 15 seconds for intersignal time, 15 seconds for light stimulus, 10 seconds for light stimulus and footshock (0.8 mA). The selected animals (n=6; selected on the basis of a performance higher than 80% at the 10th day) were treated with a 20 mg/kg dose of the compounds to be tested before the 11th session and their performance (i.e. the mean of the number of the conditioned avoidance responses) was compared to the value obtained for each group at the previous day taken as control value.

[2] = Investigation of the cataleptogenic effect (catalepsy); assay type: in vivo, Hann-Wistar rats (male); details: rats; for ED50 at 5 h: rat, in vivo, po, hourly observed for 5 hours; for Catalepsy (percent): 60 mg/kg p.o.
Procedure: as §1, §2, §3
2. Investigation of the cataleptogenic effect
The method of G. Stile and H. Launer [Arzneim.-Forsch. 21, 252 (1971)] was used for this test.
Male rats weighing 90 to 110 g (n=6) were treated with different doses of the compounds to be tested, then the number of the animals showing catalepsy was hourly observed for 5 hours.

[3] = Investigation of the amphetamine group toxicity; assay type: in vivo, CFLP mice; details: d-amphetamine 21 mg/kg i.p., 24 hours, mice; for Amphetamine group tox. (percent): 30 mg/kg p.o.
Procedure: as §1, §2, §3
3. Investigation of the amphetamine group toxicity
The method of C. D. Proctor et al. [Arch. Int. Pharmacodyn. Ther. 163, 74 (1966)] was used for this test.
The examination was carried out on mice of both sexes weighing 22 to 27 g (n=5). At the 60th minute after administration of the compounds to be tested in a dose of 30 mg/kg, d-amphetamine in a dose of 21 mg/kg was intraperitoneally given to the animals tightly closed together (25 cm^2 /mouse) and the percentage of the perished animals was registered after 24 hours.

dopaminergic system = experiment: Investigation of the apomorphine hypothermia-reverting effect; assay type: in vivo, Hann-Wistar rats; details: 10 mg/kg p.o., apomorphine 5 mg/kg i.p., rats
Procedure: as §1, §2, §3
4. Investigation of the apomorphine hypothermia-reverting effect
The method of A. Barnett et al. [Arch. Int. Pharmacodyn. Ther. 198, 242 (1972)] was used for this test.
The rectal temperature of rats (n=5) was determined by using an Ellab thermometer before administering the compounds to be tested in a dose of 10 mg/kg. Thereafter, a dose of 5 mg/kg of apomorphine was intraperitoneally given and the temperature of the animals was hourly registered for 3 hours.
The significant apomorphine-antagonizing action (reversion of the hypothermia) of the compounds is a proof of inhibition of the dopaminergic system.

[4] = Investigation of the asphyxial anoxia; assay type: in vivo, CFLP mice; details: for ED50: Mus musculus, po, 1 h, survival time longer by 30% than control = protected; for ED50 / Asphyxial anoxia (percent): mice; for Asphyxial anoxia (percent): 50 mg/kg p.o.
Procedure: as §1, §2, §3
5. Investigation of the asphyxial anoxia
The method of C. Caillard et al. [Life Sci. 16, 1607 (1975)] was used for this test.
Mice (n=5) of both sexes weighing 22 to 24 g were starved for 16 hours, then treated with a 50 mg/kg dose of the compounds to be tested. After 60 minutes, the animals were placed in tightly closed glass bottles of 100 ml volume and the survival time was registered.

[5] = H. Watchel et al., Life Sci. 33, 2583; cited from earlier work

| Compound | ED50 [1] [mg/kg] | ED50 at 5 h [2] [mg/kg] | ED50 ([3]; Mus musculus, po, read-out: Amphetamine group tox. ED50) [mg/kg] | Apomorphine hypothermia, difference of temperature change vs. apomorphine alone, 60 min (dopaminergic system) | Apomorphine hypothermia, difference of temperature change vs. apomorphine alone, 120 min (dopaminergic system) | ED50 [4] [mg/kg] | Amphetamine group tox. (percent) [3] [%] | Asphyxial anoxia (percent) [4] [%] | Catalepsy (percent) [2] [%] | neuroleptic effect (in words) [5] | CAR inhibition (percent) ([1]; 20 mg/kg p.o.) [%] | antihypoxic effect (in words) ([4]; mice p.o.) |
| --- | --- | --- | --- | --- | --- | --- | --- | --- | --- | --- | --- | --- |
| CC(=O)OCC1C=C2c3cccc4c3c(c(Cl)n4C(C)=O)CC2N(C)C1 (stereo not drawn) [A, 1-Acetyl-8-acetyloxymethyl-2-chloro-6-methyl-9-ergolene] | 3.4 | 46.5 | 19.6 | +1.3 °C | +1.3 °C | 34.8 |  |  |  |  |  |  |
| CC(=O)OCC1C=C2c3cccc4c3c(c(Br)n4C(C)=O)CC2N(C)C1 (stereo not drawn) [D, 1-acetyl-8-acetyloxymethyl-2-bromo-6-methyl-9-ergolene] | 4.6 | 42.4 |  | +0.9 °C | +1.7 °C |  | 0 | 50 |  |  |  |  |
| CN1CC(CCl)C=C2c3cccc4c3c(c(Cl)n4C=O)CC21 (stereo not drawn) [C, 2-chloro-8-chloromethyl-1-formyl-6-methyl-9-ergolene] | 12.9 |  |  | +0.6 °C | +1.2 °C |  | 0 | 50 | 0 |  |  |  |
| CCN(CC)C(=O)NC1C=C2c3cccc4[nH]c(Br)c(c34)CC2N(C)C1 (stereo not drawn) [2-Bromolysuride, 2-bromolysuride, reference compound] |  | 3.3 |  |  |  |  |  |  |  | strong neuroleptic effect |  |  |
| CC(=O)OCC1C=C2c3cccc4c3c(c(Cl)n4C=O)CC2N(C)C1 (stereo not drawn) [B, 8-acetyloxymethyl-2-chloro-1-formyl-6-methyl-9-ergolene hydrogen sulfate] | 3.7 | 51.9 |  | +2.0 °C | +2.4 °C |  | 10 | 20 |  |  |  |  |
| CN1CC(CO)C=C2c3cccc4c3c(c(Cl)n4C)CC21 (stereo not drawn) [E, 2-chloro-1,6-dimethyl-8-hydroxymethyl-9-ergolene maleate] |  |  |  | +0.8 °C | +1.8 °C | 8.6 | 0 |  | 0 |  | 24 | the antihypoxic effect comes into prominence |
